Consider 8 molecules from patent US6867211B2, “4-Pyridyl-and 2,4-pyrimidinyl-substituted pyrrole derivatives and their use in pharmacy” (Merckle GmbH, priority 2000, dated 2005).

Read-outs that look alike come from different tables or passages of the source.

Assay [1] concerns the target T1, COX2 (from sheep placenta) (Ovis aries, UniProt P79208).
T1 construct: COX2 (from sheep placenta) is preincubated at 4° C. with test substance for 10 min; from tissue; host or cells: sheep placenta
T1 sequence (P79208 17-603): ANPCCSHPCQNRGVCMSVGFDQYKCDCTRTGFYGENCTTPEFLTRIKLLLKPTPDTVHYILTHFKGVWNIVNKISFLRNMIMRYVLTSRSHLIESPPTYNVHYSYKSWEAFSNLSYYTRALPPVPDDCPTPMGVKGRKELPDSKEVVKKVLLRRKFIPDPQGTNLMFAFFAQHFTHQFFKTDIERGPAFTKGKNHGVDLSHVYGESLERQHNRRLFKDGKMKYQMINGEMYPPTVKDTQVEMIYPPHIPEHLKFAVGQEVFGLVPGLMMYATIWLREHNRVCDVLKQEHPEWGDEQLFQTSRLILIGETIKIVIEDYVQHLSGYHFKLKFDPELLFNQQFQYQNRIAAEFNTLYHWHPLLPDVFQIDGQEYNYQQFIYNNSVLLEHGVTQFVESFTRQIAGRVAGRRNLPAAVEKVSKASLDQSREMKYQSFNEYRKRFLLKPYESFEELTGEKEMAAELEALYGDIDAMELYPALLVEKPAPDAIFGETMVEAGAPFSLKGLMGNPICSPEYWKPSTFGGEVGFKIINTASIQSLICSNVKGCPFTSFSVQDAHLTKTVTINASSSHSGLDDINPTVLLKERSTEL
The assay can be described thus: In vitro test system for determining the inhibition of cyclooxygenase-2 (COX2 from sheep placenta, PGE2 ELISA). It is filed as biochemical. The conditions noted are these: read-out: COX-2 IC50. How it is done:
In vitro Test System for Determining the Inhibition of Cyclooxygenase-2
COX2 (from sheep placenta) is preincubated at 4° C. with test substance for 10 min, then stimulated with arachidonic acid (5 μM) at 25° C. for 10 min. […] The determination is carried out at 3 dilutions (10^−7, 10^−6, 10^−5 M). The PGE2 concentrations are quantified by means of ELISA (see Mitchell J. A. et al., Proc. Nat. Acad. Sci. 90: 11693-11697 (1993)).

The next assay has as its target T2, 5-lipoxygenase (Homo sapiens, UniProt P09917).
T2 construct: Human granulocytes are used as a source of the 5-lipoxygenase; endogenous in cells; host or cells: human granulocytes isolated from heparinised blood on a Percoll gradient
T2 sequence (P09917 1-674): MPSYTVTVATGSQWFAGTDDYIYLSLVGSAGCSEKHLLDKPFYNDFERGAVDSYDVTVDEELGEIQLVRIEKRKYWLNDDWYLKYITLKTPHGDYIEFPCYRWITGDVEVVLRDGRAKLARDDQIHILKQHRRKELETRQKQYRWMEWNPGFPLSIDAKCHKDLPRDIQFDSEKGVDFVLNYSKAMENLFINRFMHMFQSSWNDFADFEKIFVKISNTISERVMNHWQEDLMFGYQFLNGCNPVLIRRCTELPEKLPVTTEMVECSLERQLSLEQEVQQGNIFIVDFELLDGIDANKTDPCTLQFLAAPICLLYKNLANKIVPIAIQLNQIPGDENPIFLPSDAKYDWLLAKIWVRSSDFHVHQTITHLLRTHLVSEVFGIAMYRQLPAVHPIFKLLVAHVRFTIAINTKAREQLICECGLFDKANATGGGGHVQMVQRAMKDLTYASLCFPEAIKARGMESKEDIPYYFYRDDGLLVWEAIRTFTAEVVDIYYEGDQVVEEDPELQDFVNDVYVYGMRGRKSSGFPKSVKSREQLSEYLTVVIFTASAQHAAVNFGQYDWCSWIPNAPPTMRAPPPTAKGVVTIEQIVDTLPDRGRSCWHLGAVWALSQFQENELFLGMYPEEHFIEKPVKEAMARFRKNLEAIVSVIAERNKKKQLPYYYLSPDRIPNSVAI
As to the kind of experiment: In vitro test system for determining the inhibition of 5-lipoxygenase (LTB4 from human granulocytes, A 23187, ELISA). It is filed as cell-based. The conditions noted are these: human granulocytes; read-out: 5-LO IC50. The procedure: In vitro Test System for Determining the Inhibition of 5-lipoxygenase
Human granulocytes are used as a source of the 5-lipoxygenase. LTB4 (leukotriene B4) is formed from endogenous arachidonic acid by means of stimulation with calcium ionophore A 23187. The granulocytes are isolated and the enzyme reaction is carried out according to known processes (see Arch. Pharm. Pharm. Med. Chem. 330, 307-312 (1997)).
The blood, which is protected from clotting with heparin, is centrifuged on a discontinuous Percoll® gradient and the granulocyte layer is pipetted off. After lysis of the erythrocytes, the granulocytes are washed a number of times and then adjusted to a specific cell count. The enzyme reaction is then started with calcium ionophore A 23187 in the presence or absence of the test substance after addition of Ca2+. The synthesis of the leukotrienes is stopped after 1.5 minutes. The samples are centrifuged off and the supernatant is diluted. LTB4 is determined quantitatively by means of ELISA.
Background: ELISA stands for enzyme-linked immunosorbent assay.

Assay [2] deals with TNFα. The assay can be described thus: In vitro test procedure using PBMCs, LPS-stimulated, TNFα by ELISA. In kind it is cell-based. The conditions noted are these: Homo sapiens, PBMC; for inhibition at 1 µM: at 1 μmol; for inhibition at 10 µM: at 10 μmol. The procedure: (§1) In vitro Test Procedure Using PBMCs
(§2) The mononuclear cells (PBMCs) are isolated from human potassium-EDTA whole blood diluted 1:3 by means of density gradient centrifugation (Histopaque®-1.077). After 2 washing steps with DPBS buffer, the mononuclear cells are resuspended in macrophage-SFM medium and adjusted to a cell count of 1×10^6 cells/ml.
(§3) The PBMCs suspension (at 390 μl) is preincubated with test substance for 15 min at 37° C. in a CO2 incubator (5% CO2; 95% moisture-saturated air). The samples are subsequently stimulated for 4 hours with 1 μg/ml LPS (E.coli 026:B6) at 37° C. in a CO2 incubator (5% CO2, 95% moisture-saturated air). The reaction is ended by placing the samples on ice, addition of DPBS buffer and centrifugation (15880×g; 12 min). The supernatant is used for the quantification of IL-1β and TNFα by means of ELISA.

In assay [3] the test system is TNFα. The assay can be described thus: In vitro test procedure using human whole blood, LPS-stimulated, TNFα by ELISA. In kind it is cell-based. The conditions noted are these: Homo sapiens; whole-blood method. The procedure:
(§4) In vitro Test Procedure Using Human Whole Blood
(§5) Human potassium-EDTA whole blood (at 400 μl) is preincubated with test substance for 15 min. at 37° C. in a CO2 incubator (5% CO2; 95% moisture-saturated air). The samples are then stimulated for 4 hours with 1 μg/ml of LPS (E. coli 026:B6) at 37° C. in a CO2 incubator (5% CO2; 95% moisture-saturated air). The reaction is ended by placing the samples on ice, addition of DPBS buffer and subsequent centrifugation (1000×g; 15 min). The plasma supernatant is used for the quantification of IL-1β and TNFα by means of ELISA.

Assay [4] relates to IL-1β. The assay can be described thus: In vitro test procedure using PBMCs, LPS-stimulated, IL-1β by ELISA. In kind it is cell-based. Particulars: Homo sapiens, PBMC; for inhibition at 1 µM / inhibition at 10 µM: 4 h, read-out: IL-1β percentage inhibition; for inhibition at 1 µM: at 1 μmol; for inhibition at 10 µM: at 10 μmol. The procedure: as §1, §2, §3
In assay [5] the test system is IL-1β. The assay can be described thus: In vitro test procedure using human whole blood, LPS-stimulated, IL-1β by ELISA. In kind it is cell-based. The conditions noted are these: Homo sapiens; whole-blood method. How it is done: as §4, §5
A further assay concerns the target T3, cyclooxygenase-1 (Homo sapiens, UniProt P23219).
T3 construct: endogenous in cells; host or cells: human platelets isolated on a discontinuous Percoll gradient
The assay can be described thus: In vitro test system for determining the inhibition of cyclooxygenase-1 (PGE2 from human platelets, calcium ionophore, ELISA). Particulars: for IC50: human platelets, read-out: COX-1 IC50. It is filed as cell-based. How it is done:
In vitro Test System for Determining the Inhibition of Cyclooxygenase-1
In this test system, the amount of prostaglandin E2 formed from human platelets after addition of calcium ionophore is determined by means of ELISA. In this process, the platelets are obtained after centrifugation on a discontinuous Percoll® gradient. The enzyme reaction and the determination of the metabolites formed is carried out in principle as in the determination of 5-lipoxygenase inhibition. Differences exist with respect to the incubation time. Furthermore, the addition of a thromboxane synthesis inhibitor is necessary (see Arch. Pharm. Pharm. Med. Chem. 330, 307-312 (1997)).

The target in assay [6] is T1, COX2 (from sheep placenta). As to the kind of experiment: In vitro test system for determining the inhibition of cyclooxygenase-2 (COX2 from sheep placenta, PGE2 ELISA). It is filed as biochemical. Particulars: for IC50: value in COX-2 column.
The mark [7] stands for this setting: 4 h, read-out: TNFα percentage inhibition.
[8] abbreviates: at 10 μmol, cells marked 'PBMC:' / 'whole-blood method:'.

T3 sequence (P23219 24-599): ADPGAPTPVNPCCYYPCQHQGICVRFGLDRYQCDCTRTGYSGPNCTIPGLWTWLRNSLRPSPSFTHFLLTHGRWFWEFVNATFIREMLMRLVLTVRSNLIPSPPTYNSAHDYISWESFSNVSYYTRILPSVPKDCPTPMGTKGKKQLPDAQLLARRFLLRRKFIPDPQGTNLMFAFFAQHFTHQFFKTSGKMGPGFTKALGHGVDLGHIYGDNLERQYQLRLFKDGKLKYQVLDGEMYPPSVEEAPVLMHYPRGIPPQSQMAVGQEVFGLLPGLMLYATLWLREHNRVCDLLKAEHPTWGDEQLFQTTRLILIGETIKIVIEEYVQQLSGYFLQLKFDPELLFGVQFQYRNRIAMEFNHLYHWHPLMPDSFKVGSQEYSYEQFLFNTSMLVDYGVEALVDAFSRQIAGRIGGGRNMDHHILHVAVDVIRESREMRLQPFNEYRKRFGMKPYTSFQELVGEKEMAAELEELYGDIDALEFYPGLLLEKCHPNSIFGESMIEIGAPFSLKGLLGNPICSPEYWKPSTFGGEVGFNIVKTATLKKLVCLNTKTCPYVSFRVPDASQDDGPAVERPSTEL

What is called IC50 is the concentration that inhibits the measured activity by half. Turning to `OCc1c(-c2ccncc2)c(-c2ccc(F)cc2)n2c1CCC2` [Example 3, [3-(4-Fluorophenyl)-2-(4-pyridyl)-6,7-dihydro-5H-pyrrolizin-1-yl]methanol], the IC50 in assay [1] stood at 5.7 µM; on 5-lipoxygenase it was 3.7 µM; with TNFα [2], 4 µM; in the assay with TNFα [3] it was 28 µM; with IL-1β [4], 5 µM; in the assay with IL-1β [5], 22 µM.

Regarding `Cc1c(-c2ccncc2)c(-c2ccc(F)cc2)n2c1CCC2` [Example 4, 5-(4-Fluorophenyl)-7-methyl-6-(4-pyridyl)-2,3-dihydro-1H-pyrrolizine], the IC50 was 1.9 µM on cyclooxygenase-1; 3.4 µM in assay [1]; 2.4 µM on 5-lipoxygenase; 6 µM with TNFα [2]; 41 µM in the assay on TNFα [3]; 5.7 µM in the assay with IL-1β [4]. The same molecule returned an IC50 in the assay with IL-1β [5] of 59 µM.

In the case of `CCOC(=O)c1c(-c2ccncc2)c(-c2ccc(F)cc2)n2c1SCC2` [Example 10A, Ethyl 5-(4-fluorophenyl)-6-(4-pyridyl)-2,3-dihydropyrrolo-[2,1-b]-thiazole-7-carboxylate], the concentration for half-maximal inhibition (IC50) was 3.4 µM at cyclooxygenase-1; 6.1 µM in assay [1]; 0.065 µM on 5-lipoxygenase; 10 µM with TNFα [2]; 30 µM with TNFα [3]; more than 100 µM with IL-1β [4]. Also, in the assay with IL-1β [5], the IC50 was 30 µM.

In general, inhibition refers to how much of the control response was suppressed. With `Fc1ccc(-c2c(-c3ccncc3)cc3n2CCCC3)cc1` [Example 18, 3-(4-Fluorophenyl)-2-(4-pyridyl)-5,6,7,8-tetrahydroindolizine], the COX-1 percentage inhibition at cyclooxygenase-1 (at 10 μmol) was 10/35%. In addition, the IC50 in assay [1] is 1.6 µM; on 5-lipoxygenase it was 3.3 µM; in the assay on TNFα [3], 37 µM; in the assay on IL-1β [4] it was 7.5 µM; in the assay on IL-1β [5], 36 µM. Besides, in the assay on TNFα [2] (4 h, at 0.1 μmol, read-out: TNFα percentage inhibition), the inhibition at 0.1 µM was 16%. The inhibition at 1 µM with TNFα [2] (setting [7]) was 33%. In addition, the inhibition at 10 µM with TNFα [2] (setting [7]) is 65%.

Take `CCOC(=O)c1c(-c2ccc(F)cc2)c(-c2ccncc2)n2c1CCC2` [Example 19A, Ethyl 2-(4-fluorophenyl)-3-(4-pyridyl)-6,7-dihydro-5H-pyrrolizine-1-carboxylate]: the 50% inhibitory concentration (IC50) at cyclooxygenase-1 turned out to be 2.9 µM; in assay [1], 5.5 µM; at 5-lipoxygenase it was 2.05 µM. Besides, the inhibition at 1 µM with TNFα [2] (setting [7]) and in the assay on IL-1β [4] was 0% throughout. The inhibition at 10 µM with TNFα [2] (setting [7]) is 60%; in the assay on IL-1β [4], 21%.

Turning to `Cc1c(-c2ccc(F)cc2)c(-c2ccncc2)n2c1CCC2` [Example 21, 6-(4-Fluorophenyl)-7-methyl-5-(4-pyridyl)-2,3-dihydro-1H-pyrrolizine], the IC50 was 0.13 µM at cyclooxygenase-1; 26 µM in the assay with TNFα [2]; 5.6 µM with IL-1β [4]; 37 µM in the assay with IL-1β [5]; 0.34 µM in assay [6] (cell marked 'PBMC:'); 6 µM in assay [6] (cell marked 'whole-blood method:'). Moreover, in assay [6] (setting [8]), the COX-2 percentage inhibition came out at 33%.

For the molecule `Fc1ccc(-c2cc3n(c2-c2ccncc2)CCC3)cc1` [Example 22, 6-(4-Fluorophenyl)-5-(4-pyridyl)-2,3-dihydro-1H-pyrrolizine], the half-inhibitory concentration (IC50) at cyclooxygenase-1 was 0.23 µM; in assay [1], 1.5 µM; on 5-lipoxygenase, 0.67 µM. Also, the figures for the inhibition at 10 µM in the assay with TNFα [2] (setting [7]) and with IL-1β [4] were 34% and 59%, respectively.

With `CC1(C)CSc2c(-c3ccncc3)c(-c3ccc(F)cc3)cn2C1` [Example 23, 7-(4-Fluorophenyl)-3,3-dimethyl-8-pyridin-4-yl-3,4-dihydro-2H-pyrrolo[2,1-b][1,3]thiazine], the results for the COX-1 percentage inhibition on cyclooxygenase-1 (at 1.0 μmol) and on cyclooxygenase-1 (at 10 μmol) were 0% and 83%, respectively. In addition, the IC50 on cyclooxygenase-1 amounted to 3.5 µM; on 5-lipoxygenase it was 0.05 µM; in assay [6] (cell marked 'PBMC:'), 4 µM. In addition, the inhibition at 1 µM in the assay on TNFα [2] (setting [7]) turned out to be 0%; in the assay on IL-1β [4], 19%. In addition, the inhibition at 10 µM in the assay with TNFα [2] (setting [7]) amounted to 79%. The COX-2 percentage inhibition in assay [6] (at 1 μmol, cell marked 'PBMC:') was 10%; in assay [6] (setting [8]), 50%.
